The values that follow come from patent publication US20070161691A1, “Modified-protein formation inhibitor” (TOKAI UNIVERSITY, priority 2003, published 2007).

A short description of data set [1]: Vitamin B6 (PLP; pyridoxal phosphate) trapping. Format: biochemical. The note with it: 500 μM compound, 50 μM PLP, PBS. How it is done: To a solution of vitamin B6, the compound of this invention is added, and after a certain period of time, an amount of vitamin B6 remained is determined.
4-(5-phenyltetrazol-1-ylmethyl)-morpholine (Compound 1), 5-methyl-1-(5-phenyltetrazol-1-ylmethyl)-3a,6a-dihydro-1H-pyrrolo[3,4-d][1,2,3]triazol-4,6-dione (Compound 2) and (5-phenyltetrazol-1-yl)methanol (Compound 3) as well as aminoguanidine as the positive control were each dissolved in DMSO in a designed concentration to make a sample solution. DMSO itself was used as the negative control. In addition, pyridoxal phosphate (PLP) was dissolved in purified-water to make a designed concentration. PBS was added to each of the test compound, the positive control and the negative control, to make a final concentration of 500 μM. The PLP solution as above prepared was added to each of the resultant solution to make a final concentration of 50 μM for preparation of the PLP reaction solution. Using HPLC, the amount of PLP in the PLP reaction solution was determined after 0.1 and 10 hours, from which the PLP trapping amount of each test compound was ascertained.
The analysis of PLP using HPLC was carried out by separation with reverse-phase C18 column (4.6×250 mm, 5 μm; Waters) and by using a fluorescence detector (RF-10A; Shimazu Seisakusho; excitation wavelength, 300 nm and fluorescence wavelength, 400 nm). In the mobile phase, the flow rate was 0.6 mL/min and the concentration of buffer B was varied from 0% to 3% in 25 minutes (buffer A: 0.10% trifluoroacetic acid; buffer B: 80% acetonitrile containing 0.08% trifluoroacetic acid).

Data set [2] is described as follows: Absorbability examination, oral administration to rat. The format is in vivo. The note with it: 50 mg/kg oral. How it is done: For 4-(5-phenyltetrazol-1-yl methyl)-morpholine (compound 1) and (5-phenyltetrazol-1-yl)methanol (compound 3), their sorbability were examined. Each compounds are suspended in carboxymethyl cellulose in given concentration to prepare sample for oral administration. Then each samples were administered in the ratio of 50 mg/kg to rat using sonde. Five Wister rats (male, 8 weeks aged, closed colony) were used every one group. At one hour, 2 hours, 6 hours and 24 hours after the administration of compound, blood was obtained. The obtained blood samples were immediately cetrifuged at 3000 rpm for 15 minutes to obtain the blood plasma and the concentration of the compound in the specimen was quantitated by HPLC. Briefly, to 100 μL of obtained blood plasma was added to 200 μL of acetonitrile, centrifuged at 12000 rpm for 10 minutes to obtain supernatant, deproteinized and served to HPLC. The measuring condition of HPLC was selected from suitable condition for each compounds to separate and quantify. For example, in case of 4-(5-phenyltetrazol-1-yl methyl)-morpholine (compound 1), separated with reverse-phase C18 column (4.6×250 mm, 5 μm: Waters), and then detected using ultraviolet detector (RF-10A: Shimazu Seisakusho) at 240 nm of wavelength to quantify. In mobile phase, the flow rate is 0.8 mL/min and solvent is water: acetonitrile.

Data set [3] in a line: Acute toxicity examination, single oral administration to mouse. Particulars: male, in vivo, ICR mice, single oral administration. How it is done: (§1) For 4-(5-phenyltetrazol-1-ylmethyl)-morpholine (compound 1) and (5-phenyltetrazol-1-yl) methanol (compound 3), acute toxicity test was carried out using mice. Each compounds were suspended in carboxymethyl cellulose in given concentration to prepare sample for oral administration. Then single oral administration was done to mouse. The dose is 100, 250, 500, 1000 and 2000 mg/kg. Five ICR mice (male , 8 weeks aged, closed colony) were used in each group. The test material was administrated to determine LD50 value.

The test system of the next data set is ICR mice. The description is as above. The note with it: in vivo, po. How it is done: as §1
Data set [4] deals with glomerulonephritis model with mesangial proliferative nephritis. The data set is described as follows: Effect against glomerulonephritis (anti Thy-1 antibody model). The format is in vivo, rat. Particulars: 1 mg/kg once a day, 5 days. How it is done:
1.2 mg/kg of OX-7, anti Thy-1 antibody, was administered to wistar rat (male, body weight 150 g, 6 weeks old) in tail vein to prepare typical glomerulonephritis model with mesangial proliferative nephritis. After the administration of anti Thy-1 antibody, test compound (4-(5-phenyltetrazol-1-ylmethyl)-morpholine (compound 1), 1 mg/kg body weight, once a day) was suspended in 0.5% carboxymethylcellulose, was coercively administered for 5 days continuously, on sixth day sampled, kidney was obtained, and analysed pathologically (count the number of glomerular cells). In particular, cells were stained by PAS according to conventional method, the stained image was captured by 3CCD camera (Olympus), and then analyzed using softwares, Image Graver PCI (FUJI shashin film) and Mac Aspect (Mitani kabushiki kaisha). Also, biochemical analysis of blood and urine was carried out (contract clinical analysis organization: SR L).

Data set [5] relates to ischemia-reperfusion acute renal failure model. The experiment in a line: Renal protective effect on ischemia-reperfusion acute renal failure model rat. Format: in vivo. The note with it: 1 mg/kg once a day, 2 days. How it is done:
This condition model is typical acute renal failure model. To prepare the model, operated on wistar rat (male, body weight 150 g, 6 weeks aged) to remove right kidney, and on the following day, renal artery of remaining left kidney was applied a ligature with clip under general anesthesia. […] After preparing the ischemia-reperfusion model, test compound (4-(5-phenyltetrazol-1-yl methyl)-morpholine (compound 1), 1 mg/kg body weight, once a day) was suspended in 0.5% carboxymethylcellulose. The suspension was coercively administered 2 days continuously, on third day kidney was obtained, and analysed pathologically (renal tubular stromal disorder score). In particular, the kidney was stained by PAS according to conventional method and the renal tubular stromal disorder was estimated for the presence or absence of renal tubular necrosis, renal tubular hypertrophy, renal tubular atrophia, renal tubular basal lamina thickening and cast in the sustained image of kidney. As well as biochemical analysis of blood was carried out (contract clinical analysis organization: SRL).

For data set [6], the system named is middle cerebral artery ischemia-reperfusion model. The data set is described as follows: Cerebroprotective action in middle cerebral artery ischemia-reperfusion model. The format is in vivo, rat. Particulars: after reperfusion 22 hrs.

The structures appear in SMILES notation.

In general, LD50 refers to the dose expected to kill half of the subjects tested. High values mean a less toxic substance, low ones a more toxic substance. For the molecule `c1ccc(-c2nnnn2CN2CCOCC2)cc1` [Compound 1, 4-(5-phenyltetrazol-1-ylmethyl)-morpholine], the PLP trapping result in data set [1] is “none”. Besides, in data set [2], the “sorbability (plasma concentration after oral administration)” value is given as “good sorbability”. The LD50 in data set [3] is above 1000 mg/kg. In addition, the “toxicity” value in the data set with ICR mice was “lower toxicity”. Besides, the BUN result in data set [4] and in data set [5] was “BUN reducing effect” each time. Also, the urinary protein entry in data set [4] is given as “urinary protein reducing effect”. The “Nervous condition estimation test, Ave (Bederson grade)” value in data set [6] is recorded as 1.8.
